Measurements: patent US9718781B2, “Methods and compounds for treating proliferative disorders and viral infections” (University College Dublin, National University of Ireland, …, priority 2012, dated 2017)

Columns and labels:
TPβ = biological target: T1, TPβ (Homo sapiens, UniProt P21731); assay: U46619-induced [Ca2+]i mobilization in HEK.TPβ cells; assay type: cell-based; details: 1 μM U46619; for remaining activity at 1 µM / activity class in HEK.TPβ cells / Percentage of Control, TPβ, 1 μM: antagonist 1 μM; for remaining activity at 1 µM / remaining activity at 10 µM / Percentage of Control, TPβ, 1 μM / Percentage of Control, TPβ, 10 μM: % of agonist-induced response in vehicle-treated cells; for remaining activity at 1 µM: read-out: Percentage of Control, TPβ, 1 μM; for remaining activity at 10 µM / Percentage of Control, TPβ, 10 μM: antagonist 10 μM; for remaining activity at 10 µM: read-out: Percentage of Control, TPβ, 10 μM; for IC50: HEK.TPβ cells, Table 2, read-out: IC50 data for U46619-mediated [Ca2+]i mobilization, TPβ
T1 construct: expressed in transfected cells
T1 sequence (P21731 1-407 isoform P21731-2): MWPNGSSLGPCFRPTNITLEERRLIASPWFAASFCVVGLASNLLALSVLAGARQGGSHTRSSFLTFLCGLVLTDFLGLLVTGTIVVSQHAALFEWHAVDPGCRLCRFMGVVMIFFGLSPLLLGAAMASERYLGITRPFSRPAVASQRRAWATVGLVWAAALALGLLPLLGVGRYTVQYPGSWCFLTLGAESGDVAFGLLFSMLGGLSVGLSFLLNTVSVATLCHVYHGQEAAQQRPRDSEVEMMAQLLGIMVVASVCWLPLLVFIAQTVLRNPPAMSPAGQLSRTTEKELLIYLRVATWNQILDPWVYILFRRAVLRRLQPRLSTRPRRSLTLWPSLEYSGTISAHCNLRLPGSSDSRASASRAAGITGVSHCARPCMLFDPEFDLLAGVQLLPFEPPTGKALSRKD
Source text: (§1) An appropriate functional test for the evaluation of the agonistic and/or antagonistic potency of the compounds of the invention is the determination of calcium flux. Both TPα and TPβ are coupled to the G-protein Gαq. Therefore, stimulation of these receptors ultimately leads to a release of intracellular calcium ([Ca^2+]i) from intracellular stores. Consequently, the determination of [Ca^2+]i flux represents an appropriate functional test for the evaluation of the agonistic/antagonistic potency of compounds of the invention. Calcium can be measured using a molecule characterized by the covalent combination of a Ca^2+ chelating group and a fluorophore group. The Ca^2+ binding properties of these indicators are formed by the presence of a tetracarboxylic acid core as found for example in EGTA (Ethylene Glycol bis(2-aminoethyl)Tetraacetic Acid). Binding of Ca^2+ produces a wavelength shift in either the excitation or emission fluorescence spectra or a change in the emission intensity. Whereas the Ca^2+ binding to EGTA is pH dependent, recent dyes are designed from an EGTA derivative, BAPTA (1,2-Bis(2-Aminophenoxy)ethane-N,N,N′,N′-Tetraacetic Acid). Loading of these dyes inside cells commonly uses esterified forms (acetoxymethyl ester), which are able to cross the cell membranes and are subsequently hydrolyzed by esterases inside the cell.
(§2) Estimation of [Ca^2+]i flux is calculated from the fluorescence signal (F). For calibration, the maximal fluorescence (Fmax, Ca^2+-saturated form of the dye) as well as minimal fluorescence (Fmin, Ca^2+-free form of the dye) must be determined. These parameters are determined usually in situ after the experiment, for example by subsequent addition to the mixture of a cell-disrupting agent that releases all Ca^2+ such as Triton X100 and a potent Ca^2+-chelating agent such as EGTA. After subtraction of background fluorescence, [Ca^2+]; flux can be calculated for non-ratiometric indicators.
(§3) Intracellular [Ca^2+]; fluxes were measured using a fluorescence plate reader following a modified protocol of Kassack et al., ‘Quantitative comparison of functional screening by measuring intracellular Ca^2+ with radioligand binding at recombinant human dopamine receptors’, AAPS Pharmsci, 2002, 4(4); 102-111, in cell lines (e.g. HEK293 or other cell type) endogenously-expressing or over-expressing either TPα, TPβ or any other receptor or protein to be screened.
(§4) By way of example, HEK 293 cells which have been grown for 3-4 days in normal growth media (minimum essential media containing 10% FBS and 2 mmol/1 L-glutamine), under normal growth conditions (37° C., in humidified 5% CO2 atmosphere) are washed and harvested in KREBs-HEPES buffer (118 mM NaCl, 4.7 mM KCl, 1.2 mM MgSO4, 1.2 mM KH2PO4, 4.2 mM NaHCO3, 11.7 mM D-glucose, 1.3 mM CaCl2, 10 mM HEPES, pH 7.4). Cells are then incubated with 3 μM Fluo-4 in KREBs-HEPES buffer containing 1% Pluoronic F-127, for 1 hr at 25° C. with agitation. Then, cells are washed in KREBs-HEPES buffer containing 0.5% BSA and re-suspended at a final concentration of 3×10^5 cells/ml. Approx. 5.4×10^4 cells per well are plated in a 96-well plate and pre-incubated with test compounds for 10 m prior to measuring the fluorescence intensity at 520 nm for 25 seconds at 1 s intervals to monitor baseline using the Fluoroskan Ascent. Agonist (e.g., 1 μM U46619) is injected into separate wells by the automatic pipettor and fluorescence intensity is monitored at 520 nm for 75 seconds at 1 s intervals. Thereafter, Triton X100 and EGTA are added sequentially where Fmax refers to maximal fluorescence intensity measured after permeabilization of the cells with 2% Triton X100 and Fmin refers to fluorescence intensity measured after addition of 1 mM EGTA.
(§5) The dye Fluo-4 has its excitation peak at 480 nm, in the visible spectra, which spare cells to be damaged by UV (340-360 nm) stimulation and reduces auto-fluorescence of cells. […]

TPα = biological target: T2, TPα (Homo sapiens, UniProt P21731); assay: U46619-induced [Ca2+]i mobilization in HEK.TPα cells; assay type: cell-based; details: for remaining activity at 1 µM / Percentage of Control, TPα, 1 μM: antagonist 1 μM; for remaining activity at 1 µM / remaining activity at 10 µM / Percentage of Control, TPα, 1 μM / Percentage of Control, TPα, 10 μM / IC50: 1 μM U46619; for remaining activity at 1 µM / remaining activity at 10 µM / Percentage of Control, TPα, 1 μM / Percentage of Control, TPα, 10 μM: % of agonist-induced response in vehicle-treated cells; for remaining activity at 1 µM: read-out: Percentage of Control, TPα, 1 μM; for remaining activity at 10 µM / Percentage of Control, TPα, 10 μM: antagonist 10 μM; for remaining activity at 10 µM: read-out: Percentage of Control, TPα, 10 μM; for IC50: HEK.TPα cells, Table 2, read-out: IC50 data for U46619-mediated [Ca2+]i mobilization, TPα; for TPα:TPβ Selectivity Ratio: IC50 TPα/IC50 TPβ
T2 construct: expressed in transfected cells
T2 sequence (P21731 1-343): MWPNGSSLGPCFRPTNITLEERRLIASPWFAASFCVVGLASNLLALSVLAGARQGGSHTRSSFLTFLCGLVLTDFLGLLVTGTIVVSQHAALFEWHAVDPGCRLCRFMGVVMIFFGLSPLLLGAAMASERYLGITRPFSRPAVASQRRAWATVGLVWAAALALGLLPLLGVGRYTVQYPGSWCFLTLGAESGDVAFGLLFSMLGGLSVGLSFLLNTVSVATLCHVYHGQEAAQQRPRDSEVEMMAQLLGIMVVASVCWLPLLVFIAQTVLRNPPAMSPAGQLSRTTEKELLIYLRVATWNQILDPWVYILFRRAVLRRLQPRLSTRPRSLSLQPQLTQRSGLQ
Source text: as §1, §2, §3, §4, §5

Row | Compound | remaining activity at 1 µM (TPβ) | remaining activity at 10 µM (TPβ) | remaining activity at 1 µM (TPα) | remaining activity at 10 µM (TPα) | also measured
1 | COc1ccc(-c2cccc(Oc3ccc(-c4ccoc4)cc3S(=O)(=O)NC(=O)NC(C)(C)C)c2)cc1 [NTP20] | 42.5 ± 2.32% | 18.5 ± 3.53% | 72.4 ± 5.97% | 55.7 ± 5.84% | 
2 | COc1ccc(-c2cccc(Oc3ccc(-c4ccco4)cc3S(=O)(=O)NC(=O)NC(C)(C)C)c2)cc1 [NTP21] | 51 ± 1.62% | 32.2 ± 2.89% | 78.3 ± 8.28% | 66.4 ± 4.95% | 
3 | COc1ccc(-c2cccc(Oc3ccc(C(=O)N4CCOCC4)cc3S(=O)(=O)NC(=O)NC(C)(C)C)c2)cc1 [NTP22] | 85.1 ± 4.38% | 50.1 ± 4.06% | 101 ± 7.28% | 87.6 ± 11.3% | 
4 | COc1ccc(-c2cccc(Oc3ccc(C(=O)N4CC(O)C4)cc3S(=O)(=O)NC(=O)NC(C)(C)C)c2)cc1 [NTP23, N-(tert-butylcarbamoyl)-5-(3-hydroxyazetidine-1-carbonyl)-2-((4′-methoxy-[1,1′-biphenyl]-3-yl)oxy)benzenesulfonamide] | 48.4 ± 2.75% | 20.4 ± 1.94% | 64.2 ± 2.89% | 49.9 ± 7.61% | 
5 | COc1ccc(-c2cccc(Oc3ccc(C(=O)Nc4ncco4)cc3S(=O)(=O)NC(=O)NC(C)(C)C)c2)cc1 [NTP24] | 87.7 ± 8.18% | 37.9 ± 2.61% | 96.8 ± 3.94% | 107 ± 6.48% | 
6 | COc1ccc(-c2cccc(Oc3ccc(C(=O)Nc4ccccc4)cc3S(=O)(=O)NC(=O)NC(C)(C)C)c2)cc1 [NTP25] | 61.6 ± 1.93% | 14.8 ± 2.03% | 80 ± 7.15% | 65.5 ± 6.32% | 
7 | COc1ccc(-c2cccc(Oc3ccc(S(C)(=O)=O)cc3S(=O)(=O)NC(=O)NC(C)(C)C)c2)cc1 [NTP27, N-(tert-butylcarbamoyl)-2-((4′-methoxy-[1,1′-biphenyl]-3-yl)oxy)-5-(methylsulfonyl)benzenesulfonamide] | 36.4 ± 3.8% | 16.3 ± 2.39% | 81.1 ± 10.2% | 68.4 ± 4.56% | activity class in HEK.TPβ cells (TPβ): ACTIVE
8 | CCNC(=O)c1ccc(Oc2cccc(-c3ccc(OC)cc3)c2)c(S(=O)(=O)NC(=O)NC(C)(C)C)c1 [NTP28] | 110 ± 1.85% | 62.3 ± 4.3% | 108 ± 7.64% | 89.5 ± 10.3% | 
9 | COc1ccc(-c2cccc(Oc3ccc(-c4ccncc4)cc3S(=O)(=O)NC(=O)NC(C)(C)C)c2)cc1 [NTP29] | 100 ± 4.69% | 94.6 ± 3.58% | 113 ± 8.15% | 105 ± 8.03% | 
10 | COc1ccc(-c2cccc(Oc3ccc(Cl)cc3S(=O)(=O)NC(=O)NC(C)(C)C)c2)cc1 [NTP30, N-(tert-butylcarbamoyl)-5-chloro-2-((4′-methoxy-[1,1′-biphenyl]-3-yl)oxy)benzenesulfonamide] | 46.5 ± 5.86% | 9.31 ± 1.57% | 52.2 ± 3.9% | 23.3 ± 3.63% | activity class in HEK.TPβ cells (TPβ): ACTIVE
11 | COc1ccc(-c2cccc(Oc3ccncc3S(=O)(=O)NC(=O)NC(C)(C)C)c2)cc1 [NTP31, N-(tert-butylcarbamoyl)-4-((4′-methoxy-[1,1′-biphenyl]-3-yl)oxy)pyridine-3-sulfonamide] | 74.8 ± 5.49% | 27.7 ± 4.21% | 77.3 ± 8.72% | 52.7 ± 2.89% | 
12 | COc1ccc(-c2cccc(Oc3cc(C)c(C#N)cc3S(=O)(=O)NC(=O)NC(C)(C)C)c2)cc1 [NTP32, N-(tert-butylcarbamoyl)-5-cyano-2-((4′-methoxy-[1,1′-biphenyl]-3-yl)oxy)-4-methyl benzenesulfonamide] |  |  |  |  | Percentage of Control, TPβ, 1 μM (TPβ): 93.6 ± 4.06%; Percentage of Control, TPβ, 10 μM (TPβ): 46.2 ± 4.83%; Percentage of Control, TPα, 1 μM (TPα): 80.3 ± 4.21%; Percentage of Control, TPα, 10 μM (TPα): 69.3 ± 2.07%
13 | COc1ccc(-c2cccc(Oc3ccc(C#N)cc3S(=O)(=O)NC(=O)NC(C)(C)C)c2)cc1 [NTP33, N-(tert-butylcarbamoyl)-5-cyano-2-((4′-methoxy-[1,1′-biphenyl]-3-yl)oxy)benzene-sulfonamide] |  |  |  |  | Percentage of Control, TPβ, 1 μM (TPβ): 75.6 ± 6.46%; Percentage of Control, TPβ, 10 μM (TPβ): 34.5 ± 1.56%; Percentage of Control, TPα, 1 μM (TPα): 103 ± 6.25%; Percentage of Control, TPα, 10 μM (TPα): 82.4 ± 5.86%
14 | COc1ccc(-c2cccc(Oc3cc[n+]([O-])cc3S(=O)(=O)NC(=O)NC(C)(C)C)c2)cc1 [NTP41, 3-(N-(tert-butylcarbamoyl)sulfamoyl)-4-((4′-methoxy-[1,1′-biphenyl]-3-yl)oxy)pyridine 1-oxide] | 72.2 ± 5.66% | 18.8 ± 1.77% | 82.6 ± 3.41% | 52.8 ± 8.03% | 
15 | CCCCCNC(=O)NS(=O)(=O)c1cc([N+](=O)[O-])ccc1Oc1cccc(-c2ccc(OC)cc2)c1 [XLIII] |  |  |  |  | IC50 (TPβ): 9.33 µM; IC50 (TPα): 13 µM; TPα:TPβ Selectivity Ratio (TPα): 1.4
16 | CC(C)(C)NC(=O)NS(=O)(=O)c1cc([N+](=O)[O-])ccc1Oc1cccc(I)c1 [XXXVIII, 2-(3-Iodophenoxy)-5-nitrobenzene(t-butyl)sulfonyl urea] |  |  |  |  | IC50 (TPβ): 1.99 µM; IC50 (TPα): 4.01 µM; TPα:TPβ Selectivity Ratio (TPα): 2
